Results on 20 molecules are retold here after patent US10160755B2 (Plexxikon Inc., priority 2015, dated 2018).

One assay concerns the target c-Kit (Homo sapiens, UniProt P10721). Put plainly: c-Kit biochemical assay (per US 2007/0032519). The essentials: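 Biochemical kinase inhibition run per US 2007/0032519; values reported as binned IC50 ranges (0.0001–1 μM, 1–10 μM, 10–200 μM).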
For the next assay, the target named is T1, FLT3-D835Y (Homo sapiens, UniProt P36888, D835Y).
T1 construct: purchased Invitrogen PV3967
T1 sequence (P36888 27-993 D835Y): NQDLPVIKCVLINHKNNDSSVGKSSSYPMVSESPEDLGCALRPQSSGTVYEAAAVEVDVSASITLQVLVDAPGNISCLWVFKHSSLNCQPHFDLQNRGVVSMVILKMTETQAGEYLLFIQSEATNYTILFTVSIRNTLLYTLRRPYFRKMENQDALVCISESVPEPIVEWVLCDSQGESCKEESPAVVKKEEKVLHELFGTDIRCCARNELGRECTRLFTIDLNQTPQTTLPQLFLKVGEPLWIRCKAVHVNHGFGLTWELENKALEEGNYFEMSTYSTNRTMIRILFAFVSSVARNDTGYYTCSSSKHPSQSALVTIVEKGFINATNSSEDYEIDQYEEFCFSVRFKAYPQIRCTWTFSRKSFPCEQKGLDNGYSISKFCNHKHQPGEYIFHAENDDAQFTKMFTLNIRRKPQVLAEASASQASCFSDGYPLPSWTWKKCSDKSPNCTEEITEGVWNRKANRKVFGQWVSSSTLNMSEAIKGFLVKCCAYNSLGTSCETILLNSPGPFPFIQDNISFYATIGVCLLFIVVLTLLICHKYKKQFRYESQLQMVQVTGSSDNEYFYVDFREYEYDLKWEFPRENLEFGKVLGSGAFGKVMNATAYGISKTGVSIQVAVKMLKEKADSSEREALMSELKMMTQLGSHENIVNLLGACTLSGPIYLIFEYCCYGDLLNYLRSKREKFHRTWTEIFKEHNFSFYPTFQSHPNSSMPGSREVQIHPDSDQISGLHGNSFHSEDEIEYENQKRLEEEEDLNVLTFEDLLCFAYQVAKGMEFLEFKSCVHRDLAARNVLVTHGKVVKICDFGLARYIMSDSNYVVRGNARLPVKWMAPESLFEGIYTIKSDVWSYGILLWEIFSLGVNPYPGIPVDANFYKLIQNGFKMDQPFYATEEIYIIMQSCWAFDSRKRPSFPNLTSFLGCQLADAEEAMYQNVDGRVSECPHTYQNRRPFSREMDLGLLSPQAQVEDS
Nature of the assay: FLT3-D835Y biochemical kinase assay (AlphaScreen). The essentials:
(§1)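 First, recombinant FLT3 variant phosphorylates a biotinylated poly(Glu4-Tyr) peptide (30 nM) with ATP at 10 μM (D835Y) or 100 μM (ITD). Streptavidin donor beads are then added for 20 min at room temperature, followed by anti-phosphotyrosine PY20 acceptor beads for 60 min. Signal at 580 nm gives IC50.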

Another assay concerns the target T2, FLT3-ITD (Homo sapiens, UniProt P36888).
T2 construct: FLT3-ITD; Invitrogen #PV6190
T2 sequence (P36888 1-993): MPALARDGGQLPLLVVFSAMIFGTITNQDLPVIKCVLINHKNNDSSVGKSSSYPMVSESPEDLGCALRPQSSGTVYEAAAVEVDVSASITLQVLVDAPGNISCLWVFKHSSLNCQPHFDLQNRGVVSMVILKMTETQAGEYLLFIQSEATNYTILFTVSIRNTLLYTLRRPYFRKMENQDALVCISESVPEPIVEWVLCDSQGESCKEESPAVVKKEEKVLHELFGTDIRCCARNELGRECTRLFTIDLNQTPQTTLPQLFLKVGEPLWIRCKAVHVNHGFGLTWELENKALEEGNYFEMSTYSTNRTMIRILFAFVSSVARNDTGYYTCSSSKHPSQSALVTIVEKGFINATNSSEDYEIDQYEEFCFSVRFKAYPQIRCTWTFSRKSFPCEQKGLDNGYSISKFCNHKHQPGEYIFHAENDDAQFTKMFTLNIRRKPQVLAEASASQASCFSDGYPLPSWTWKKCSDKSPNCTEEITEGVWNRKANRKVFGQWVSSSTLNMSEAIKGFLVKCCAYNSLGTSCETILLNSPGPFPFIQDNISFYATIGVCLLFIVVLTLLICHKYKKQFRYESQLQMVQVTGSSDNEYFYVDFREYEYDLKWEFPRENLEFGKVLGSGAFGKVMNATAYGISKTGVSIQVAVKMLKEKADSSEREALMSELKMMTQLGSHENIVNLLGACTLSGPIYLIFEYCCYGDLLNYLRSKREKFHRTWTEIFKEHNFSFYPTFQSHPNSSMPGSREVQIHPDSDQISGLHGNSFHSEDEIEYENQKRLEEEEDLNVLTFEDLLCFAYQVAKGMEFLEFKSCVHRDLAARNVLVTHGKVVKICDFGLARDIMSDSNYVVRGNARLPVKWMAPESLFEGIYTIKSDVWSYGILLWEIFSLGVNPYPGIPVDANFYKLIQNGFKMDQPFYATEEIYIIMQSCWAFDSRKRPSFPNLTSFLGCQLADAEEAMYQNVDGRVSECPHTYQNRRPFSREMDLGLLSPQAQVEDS
Put plainly: FLT3-ITD biochemical kinase assay (AlphaScreen). The method in brief:
as §1

Sequence of c-Kit (P10721 26-976): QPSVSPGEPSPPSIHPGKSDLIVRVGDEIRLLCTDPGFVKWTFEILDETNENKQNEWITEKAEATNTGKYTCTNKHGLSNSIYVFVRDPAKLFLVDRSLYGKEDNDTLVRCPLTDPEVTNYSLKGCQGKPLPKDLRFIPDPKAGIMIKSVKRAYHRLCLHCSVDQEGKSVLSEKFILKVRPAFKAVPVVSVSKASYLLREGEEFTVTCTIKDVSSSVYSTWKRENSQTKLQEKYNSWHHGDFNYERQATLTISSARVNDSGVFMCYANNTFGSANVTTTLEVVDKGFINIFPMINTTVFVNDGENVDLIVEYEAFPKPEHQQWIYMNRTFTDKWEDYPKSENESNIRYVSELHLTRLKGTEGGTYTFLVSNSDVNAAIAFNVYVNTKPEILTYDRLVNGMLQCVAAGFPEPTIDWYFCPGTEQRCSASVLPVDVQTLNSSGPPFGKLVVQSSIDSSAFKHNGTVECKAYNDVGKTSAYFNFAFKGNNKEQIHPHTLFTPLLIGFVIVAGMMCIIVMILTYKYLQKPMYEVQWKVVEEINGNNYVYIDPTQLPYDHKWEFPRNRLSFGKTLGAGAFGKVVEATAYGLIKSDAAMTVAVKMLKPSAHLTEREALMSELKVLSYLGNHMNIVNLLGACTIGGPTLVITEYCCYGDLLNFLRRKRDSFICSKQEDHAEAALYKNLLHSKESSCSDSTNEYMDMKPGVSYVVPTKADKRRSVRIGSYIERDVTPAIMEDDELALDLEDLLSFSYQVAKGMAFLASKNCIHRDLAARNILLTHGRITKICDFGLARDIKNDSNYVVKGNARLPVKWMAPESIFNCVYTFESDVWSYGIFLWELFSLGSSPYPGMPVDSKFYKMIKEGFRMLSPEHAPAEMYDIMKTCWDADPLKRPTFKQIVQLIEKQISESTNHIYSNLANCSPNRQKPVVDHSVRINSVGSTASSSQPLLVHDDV

On to `Cn1cnc2ccc(-c3c[nH]c4ncc(-c5cccc(OC(F)(F)F)c5)cc34)cc21` [P-131, 1-methyl-6-[5-[3-(trifluoromethoxy)phenyl]-1H-pyrrolo[2,3-b]pyridin-3-yl]benzimidazole], for which the 50% inhibitory concentration (IC50) lay in the range of 10 to 200 µM on c-Kit, 0.0001 to 1 µM on FLT3-D835Y and 0.0001 to 1 µM against FLT3-ITD.
Take `COc1cc(-c2cnc3[nH]cc(-c4ccc5ncn(C)c5c4)c3c2)ccc1Cl` [P-092, 5-(4-chloro-3-methoxy-phenyl)-3-(3-methylbenzimidazol-5-yl)-1H-pyrrolo[2,3-b]pyridine]: the concentration for half-maximal inhibition (IC50) against c-Kit, at FLT3-D835Y and on FLT3-ITD was 0.0001 to 1 µM in each case.
As for `CC(C)n1cc(-c2cnc3[nH]cc(-c4ccc5ncn(C(C)(C)C)c5c4)c3n2)cn1` [P-382, 7-(3-tert-butylbenzimidazol-5-yl)-2-(1-isopropylpyrazol-4-yl)-5H-pyrrolo[2,3-b]pyrazine], the IC50 against c-Kit, against FLT3-D835Y and against FLT3-ITD was 0.0001 to 1 µM in each case.
For `COc1ccc2c(-c3ccc4ncn(C)c4c3)c[nH]c2n1` [P-034, 6-methoxy-3-(3-methylbenzimidazol-5-yl)-1H-pyrrolo[2,3-b]pyridine], the half-inhibitory concentration (IC50) lay in the range of 10 to 200 µM at c-Kit, 1 to 10 µM on FLT3-D835Y and 1 to 10 µM on FLT3-ITD.
As to `CCn1cnc2ccc(-c3c[nH]c4ncc(OC)cc34)cc21` [P-048, 1-ethyl-6-(5-methoxy-1H-pyrrolo[2,3-b]pyridin-3-yl)benzimidazole], the half-maximal inhibitory concentration (IC50) against c-Kit fell in the range of 10 to 200 µM; against FLT3-D835Y, 0.0001 to 1 µM; at FLT3-ITD, 0.0001 to 1 µM.
As to `COc1cnc2[nH]cc(-c3ccc4[nH]nc(C)c4c3)c2c1` [P-083, 5-methoxy-3-(3-methyl-1H-indazol-5-yl)-1H-pyrrolo[2,3-b]pyridine], the half-inhibitory concentration (IC50) on c-Kit lay in the range of 1 to 10 µM; against FLT3-D835Y, 0.0001 to 1 µM; against FLT3-ITD, 0.0001 to 1 µM.
On to `CC(C)(C)n1cnc2ccc(-c3c[nH]c4ncc(C5=CCN(C(=O)C6CC6)C5)cc34)cc21` [P-134, [3-[3-(3-tert-butylbenzimidazol-5-yl)-1H-pyrrolo[2,3-b]pyridin-5-yl]-2,5-dihydropyrrol-1-yl]-cyclopropyl-methanone], for which the IC50 against c-Kit lay in the range of 10 to 200 µM; at FLT3-D835Y, 0.0001 to 1 µM; against FLT3-ITD it was 0.0001 to 1 µM.
Regarding `Cc1nn(C(C)C)cc1-c1cnc2[nH]cc(-c3ccc4ncn(C(C)(C)C)c4c3)c2n1` [P-381, 7-(3-tert-butylbenzimidazol-5-yl)-2-(1-isopropyl-3-methyl-pyrazol-4-yl)-5H-pyrrolo[2,3-b]pyrazine], the half-inhibitory concentration (IC50) against c-Kit, at FLT3-D835Y and on FLT3-ITD was 0.0001 to 1 µM in each case.
Turning to `COc1cnc2[nH]cc(-c3cnc4[nH]cnc4c3)c2c1` [P-052, 6-(5-methoxy-1H-pyrrolo[2,3-b]pyridin-3-yl)-3H-imidazo[4,5-b]pyridine], the values for the 50% inhibitory concentration (IC50) at c-Kit, against FLT3-D835Y and on FLT3-ITD were 1 to 10 µM, 0.0001 to 1 µM and 0.0001 to 1 µM, respectively.
Consider `O=C(C1CC1)N1CC=C(c2cnc3[nH]cc(-c4ccc5ncn(CC(F)(F)F)c5c4)c3c2)C1` [P-133, cyclopropyl-[3-[3-[3-(2,2,2-trifluoroethyl)benzimidazol-5-yl]-1H-pyrrolo[2,3-b]pyridin-5-yl]-2,5-dihydropyrrol-1-yl]methanone], for which the IC50 against c-Kit lay within 1 to 10 µM; against FLT3-D835Y, 0.0001 to 1 µM; at FLT3-ITD it was 0.0001 to 1 µM.
Regarding `CS(=O)(=O)Nc1cccc(-c2cnc3[nH]cc(-c4ccc5c(c4)OCO5)c3n2)c1` [P-058, N-[3-[7-(1,3-benzodioxol-5-yl)-5H-pyrrolo[2,3-b]pyrazin-2-yl]phenyl]methanesulfonamide], the IC50 against c-Kit lay within 10 to 200 µM; against FLT3-D835Y it was 0.0001 to 1 µM; against FLT3-ITD, 0.0001 to 1 µM.
Consider `CS(=O)(=O)Nc1cccc(-c2cnc3[nH]cc(-c4ccc5[nH]cnc5c4)c3c2)c1` [P-013, N-[3-[3-(1H-benzimidazol-5-yl)-1H-pyrrolo[2,3-b]pyridin-5-yl]phenyl]methanesulfonamide], for which the concentration for half-maximal inhibition (IC50) on c-Kit was 1 to 10 µM; on FLT3-D835Y, 0.0001 to 1 µM; against FLT3-ITD, 0.0001 to 1 µM.
In the case of `CS(=O)(=O)Nc1cccc(-c2cnc3[nH]cc(-c4ccc5ncsc5c4)c3c2)c1` [P-053, N-[3-[3-(1,3-benzothiazol-6-yl)-1H-pyrrolo[2,3-b]pyridin-5-yl]phenyl]methanesulfonamide], the IC50 against c-Kit fell in the range of 1 to 10 µM; against FLT3-D835Y it was 0.0001 to 1 µM; against FLT3-ITD it was 0.0001 to 1 µM.
Turning to `CS(=O)(=O)Nc1cccc(-c2cnc3[nH]cc(-c4ccc5c(c4)OCCO5)c3n2)c1` [P-059, N-[3-[7-(2,3-dihydro-1,4-benzodioxin-6-yl)-5H-pyrrolo[2,3-b]pyrazin-2-yl]phenyl]methanesulfonamide], the IC50 is 10 to 200 µM against c-Kit, 0.0001 to 1 µM against FLT3-D835Y and 0.0001 to 1 µM against FLT3-ITD.
`Cn1cnc2ccc(-c3c[nH]c4ncc(-c5cccc(NS(C)(=O)=O)c5)nc34)cc21` [P-038, N-[3-[7-(3-methylbenzimidazol-5-yl)-5H-pyrrolo[2,3-b]pyrazin-2-yl]phenyl]methanesulfonamide]: the half-maximal inhibitory concentration (IC50) at c-Kit is 10 to 200 µM; on FLT3-D835Y, 0.0001 to 1 µM; against FLT3-ITD, 0.0001 to 1 µM.
Take `Cn1cnc2ccc(-c3c[nH]c4ncc(F)cc34)cc21` [P-028, 5-fluoro-3-(3-methylbenzimidazol-5-yl)-1H-pyrrolo[2,3-b]pyridine]: the values for the concentration for half-maximal inhibition (IC50) at c-Kit, at FLT3-D835Y and on FLT3-ITD were 10 to 200 µM, 0.0001 to 1 µM and 0.0001 to 1 µM, respectively.
As for `CS(=O)(=O)Nc1cccc(-c2cnc3[nH]cc(-c4ccc5ncn(C6CCCC6)c5c4)c3n2)c1` [P-070, N-[3-[7-(3-cyclopentylbenzimidazol-5-yl)-5H-pyrrolo[2,3-b]pyrazin-2-yl]phenyl]methanesulfonamide], the half-maximal inhibitory concentration (IC50) was in the range of 1 to 10 µM on c-Kit, 0.0001 to 1 µM at FLT3-D835Y and 0.0001 to 1 µM against FLT3-ITD.
As for `Cn1cnc2ccc(-c3c[nH]c4ncc(C#N)cc34)cc21` [P-020, 3-(3-methylbenzimidazol-5-yl)-1H-pyrrolo[2,3-b]pyridine-5-carbonitrile], the figures for the IC50 on c-Kit, against FLT3-D835Y and at FLT3-ITD were 10 to 200 µM, 0.0001 to 1 µM and 0.0001 to 1 µM, respectively.
`COc1cnc2[nH]cc(-c3ccc4ncn(CC5CC5)c4c3)c2c1` [P-062, 1-(cyclopropylmethyl)-6-(5-methoxy-1H-pyrrolo[2,3-b]pyridin-3-yl)benzimidazole]: the half-inhibitory concentration (IC50) is 10 to 200 µM against c-Kit, 0.0001 to 1 µM against FLT3-D835Y and 0.0001 to 1 µM against FLT3-ITD.
As for `CS(=O)(=O)Nc1cccc(-c2cnc3[nH]cc(-c4ccc5c(c4)N(CC4CC4)CCO5)c3n2)c1` [P-081, N-[3-[7-[4-(cyclopropylmethyl)-2,3-dihydro-1,4-benzoxazin-6-yl]-5H-pyrrolo[2,3-b]pyrazin-2-yl]phenyl]methanesulfonamide], the concentration for half-maximal inhibition (IC50) against c-Kit lay in the range of 10 to 200 µM; against FLT3-D835Y, 0.0001 to 1 µM; on FLT3-ITD it was 0.0001 to 1 µM.
